The values below come from US20250066363A1, “Bicyclic DGK Inhibitors” (Incyte Corporation, priority 2023, published 2025).

Bounds are passed on as bounds.

One may read the IC50 as the point on the concentration scale where inhibition reaches its midpoint.

The target in one test is DGKα (Homo sapiens (Human), UniProt P23743). Description: In vitro DGKα inhibition assay (ADP-Glo). Type of test: biochemical. To be noted: first column of Table A; His-tagged human recombinant DGKα 0.1 nM, 50 μM ATP, 20 μM DLG. For orientation: ADP-Glo first removes unused ATP, then detects ADP through luciferase.
A further test has as its target DGKζ (Homo sapiens (Human), UniProt Q13574). As to the kind of experiment: In vitro DGKζ inhibition assay (ADP-Glo). To be noted: second column of Table A, head printed DGKα, presumably DGKζ; His-tagged human recombinant DGKζ 0.4 nM, 30 μM ATP, 20 μM DLG. It is filed as biochemical.

Chain of DGKζ (Q13574 whole entry): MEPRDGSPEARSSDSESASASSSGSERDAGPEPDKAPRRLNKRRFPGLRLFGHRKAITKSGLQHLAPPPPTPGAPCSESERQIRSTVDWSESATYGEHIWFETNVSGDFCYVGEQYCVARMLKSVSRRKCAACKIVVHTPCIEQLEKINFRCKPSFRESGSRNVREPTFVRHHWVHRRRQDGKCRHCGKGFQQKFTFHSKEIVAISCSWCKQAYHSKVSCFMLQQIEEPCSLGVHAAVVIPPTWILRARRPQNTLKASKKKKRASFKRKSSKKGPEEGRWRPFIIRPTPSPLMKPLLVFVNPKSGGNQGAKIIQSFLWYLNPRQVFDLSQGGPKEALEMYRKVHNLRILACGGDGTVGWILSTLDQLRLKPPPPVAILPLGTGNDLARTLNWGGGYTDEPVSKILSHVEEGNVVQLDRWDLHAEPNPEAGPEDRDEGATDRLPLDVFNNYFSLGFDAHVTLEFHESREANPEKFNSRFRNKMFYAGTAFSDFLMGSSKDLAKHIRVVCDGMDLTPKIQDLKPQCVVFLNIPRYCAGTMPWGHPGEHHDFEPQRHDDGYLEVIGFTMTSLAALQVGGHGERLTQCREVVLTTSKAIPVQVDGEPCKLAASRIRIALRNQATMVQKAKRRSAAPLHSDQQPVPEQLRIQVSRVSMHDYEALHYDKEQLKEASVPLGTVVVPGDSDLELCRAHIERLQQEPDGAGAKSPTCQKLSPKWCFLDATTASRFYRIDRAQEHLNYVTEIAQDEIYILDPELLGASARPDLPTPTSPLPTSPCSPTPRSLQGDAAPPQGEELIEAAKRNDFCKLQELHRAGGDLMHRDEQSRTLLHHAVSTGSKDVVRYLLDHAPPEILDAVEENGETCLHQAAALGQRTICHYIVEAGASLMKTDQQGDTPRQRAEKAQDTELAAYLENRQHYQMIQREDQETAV
Chain of DGKα (P23743 whole entry): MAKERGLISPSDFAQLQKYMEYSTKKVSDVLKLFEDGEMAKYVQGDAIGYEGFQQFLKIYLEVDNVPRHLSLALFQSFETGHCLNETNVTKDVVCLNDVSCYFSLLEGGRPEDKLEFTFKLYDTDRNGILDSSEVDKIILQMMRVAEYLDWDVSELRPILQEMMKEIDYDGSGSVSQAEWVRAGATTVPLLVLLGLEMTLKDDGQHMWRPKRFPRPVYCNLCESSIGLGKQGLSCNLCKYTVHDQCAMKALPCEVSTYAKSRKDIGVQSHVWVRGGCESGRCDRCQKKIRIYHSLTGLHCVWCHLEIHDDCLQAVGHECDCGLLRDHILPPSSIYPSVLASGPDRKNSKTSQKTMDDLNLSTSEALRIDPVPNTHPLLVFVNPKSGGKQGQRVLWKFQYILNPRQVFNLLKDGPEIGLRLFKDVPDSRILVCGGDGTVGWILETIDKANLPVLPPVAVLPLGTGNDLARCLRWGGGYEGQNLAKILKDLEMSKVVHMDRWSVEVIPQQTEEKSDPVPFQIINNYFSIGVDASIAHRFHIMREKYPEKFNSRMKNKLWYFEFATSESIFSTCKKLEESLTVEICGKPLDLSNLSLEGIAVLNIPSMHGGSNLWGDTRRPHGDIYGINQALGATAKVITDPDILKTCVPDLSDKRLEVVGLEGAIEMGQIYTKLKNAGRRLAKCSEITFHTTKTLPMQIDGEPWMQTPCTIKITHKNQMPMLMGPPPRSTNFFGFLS

Take `CC[C@@H]1CN(c2nc(=O)n(C)c3c2nc(C)n3C[C@@H]2CCCO2)[C@@H](C)CN1[C@@H](C)c1ccc(C(F)(F)F)cc1` [Example 61, 6-((2S,5R)-5-Ethyl-2-methyl-4-((S)-1-(4-(trifluoromethyl)phenyl)ethyl)piperazin-1-yl)-3,8-dimethyl-9-(((S)-tetrahydrofuran-2-yl)methyl)-3,9-dihydro-2H-purin-2-one]: the IC50 at DGKα and on DGKζ was ≤ 10 nM in each case.

`CC[C@@H]1CN(c2nc(=O)n(C)c3c2nc(C)n3C[C@@H]2CCCO2)[C@@H](C)CN1[C@@H](CC)c1ccc(Cl)cc1` [Example 24, 6-((2S,5R)-4-((S)-1-(4-Chlorophenyl)propyl)-5-ethyl-2-methylpiperazin-1-yl)-3,8-dimethyl-9-(((S)-tetrahydrofuran-2-yl)methyl)-3,9-dihydro-2H-purin-2-one]: the IC50 at DGKα and on DGKζ was ≤ 10 nM each time.

Regarding `CC[C@@H]1CN(c2nc(=O)n(C)c3c2nc(C)n3C[C@H]2OCC[C@@H]2O)[C@@H](C)CN1C(c1ccc(C(F)(F)F)cc1)C1CC(F)(F)C1` (single isomer, unassigned) [Example 68], the IC50 on DGKα and on DGKζ was ≤ 10 nM throughout.
